Read-outs that look alike come from different tables or passages of the source.

For series [1], the system named is Caco-2 cells.
Series [2] relates to Caco-2 cells. The source holds these as a separate data set.
The subject of another series is MDCKII-MDR1 cells. Briefly: Monolayer integrity: lucifer yellow permeability, MDCKII-MDR1 (series 2). The note with it: MDCKII-MDR1, series 2, 100 µM lucifer yellow.
For series [3] the following is noted: cited from earlier work.

Method for MDCKII-MDR1 cells: For (2) and (3), passive permeability was assessed by supplementation of 100 µM lucifer yellow to all donor solutions.
Papp was calculated by dividing the flux with the measured donor concentration.

On to `OC[C@@H](O)[C@@H](O)[C@H](O)[C@H](O)CO` [^3H-mannitol], for which, in the series with Caco-2 cells [1], the 3H-mannitol permeability is 0.31–1.4 × 10^−6 cm/s.

With lucifer yellow, the Lucifer yellow permeability in the series with Caco-2 cells [2] is 0.15–1.1 × 10^−6 cm/s; in the series with MDCKII-MDR1 cells it was 0.39–1.2 × 10^−6 cm/s.

For the molecule polysorbate 20, the “critical micelle concentration (CMC)” value in series [3] (in water, temperatures of 22–40 °C) is 11 to 57 µM; in series [3] (room temperature), 11 to 42 µM.

Source of the values: article PMC9865188 (Pharmaceutics, 2023).
